Read-outs that look alike come from different tables or passages of the source.
Experiments:
[1] = target: Endothelial lipase (EL) (Homo sapiens (Human), UniProt Q9Y5X9); test: EL assay: endothelial lipase activity with fluorescent substrate A10070 in DMPG vesicles; assay type: biochemical
In short: (§1)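 Compounds were preincubated with enzyme for 30 min at 37° C before FRET-substrate vesicles (A10070 in DMPG, 0.11 mole fraction) were added. Reaction rates were obtained from the 300–900 sec slope of fluorescence at 490/530 nm.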

[2] = target: hepatic lipase (HL) (Homo sapiens (Human), UniProt P11150); test: HL assay: hepatic lipase activity with fluorescent substrate A10070 in DMPG vesicles; assay type: biochemical
hepatic lipase (HL), sequence (P11150 23-499, species assumed): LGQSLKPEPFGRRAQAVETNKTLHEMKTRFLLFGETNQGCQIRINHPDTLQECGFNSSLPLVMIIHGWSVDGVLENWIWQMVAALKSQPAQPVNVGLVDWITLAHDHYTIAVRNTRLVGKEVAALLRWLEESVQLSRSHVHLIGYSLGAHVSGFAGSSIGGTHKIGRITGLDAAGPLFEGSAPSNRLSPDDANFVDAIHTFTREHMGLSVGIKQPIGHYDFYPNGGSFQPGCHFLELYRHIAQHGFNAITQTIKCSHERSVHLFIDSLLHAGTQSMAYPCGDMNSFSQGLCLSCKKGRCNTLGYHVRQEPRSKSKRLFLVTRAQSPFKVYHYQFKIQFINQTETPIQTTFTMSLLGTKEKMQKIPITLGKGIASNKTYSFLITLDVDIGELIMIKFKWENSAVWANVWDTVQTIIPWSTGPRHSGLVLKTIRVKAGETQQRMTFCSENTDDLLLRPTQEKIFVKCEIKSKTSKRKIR
In short: as §1

[3] = EL from conditioned media of HT-1080 cells, 30 min incubation with compound at 37° C., A10070/DMPG vesicles
[4] = HL partially purified from conditioned media of COS cells, 30 min incubation with compound at 37° C., A10070/DMPG vesicles

Endothelial lipase (EL), sequence (Q9Y5X9 21-500): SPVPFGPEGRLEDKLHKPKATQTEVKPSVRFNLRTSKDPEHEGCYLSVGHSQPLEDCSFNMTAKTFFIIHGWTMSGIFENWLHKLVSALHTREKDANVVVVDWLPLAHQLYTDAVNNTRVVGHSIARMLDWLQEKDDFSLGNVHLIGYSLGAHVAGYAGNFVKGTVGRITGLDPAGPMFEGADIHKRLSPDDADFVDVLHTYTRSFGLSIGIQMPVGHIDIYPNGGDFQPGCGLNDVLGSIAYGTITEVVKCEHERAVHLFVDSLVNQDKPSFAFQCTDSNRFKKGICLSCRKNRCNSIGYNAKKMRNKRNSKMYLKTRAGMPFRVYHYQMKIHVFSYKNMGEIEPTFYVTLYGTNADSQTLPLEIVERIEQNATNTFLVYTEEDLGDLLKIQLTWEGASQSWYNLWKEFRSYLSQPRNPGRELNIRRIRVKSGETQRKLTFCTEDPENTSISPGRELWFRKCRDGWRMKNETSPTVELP

In the case of `COc1cc(-c2ccc3nc(C(C(=O)NCCS(N)(=O)=O)S(C)(=O)=O)sc3c2)ccn1` (stereo not drawn) [Example B147, 2-(6-(2-methoxy-4-pyridinyl)-1,3-benzothiazol-2-yl)-2-(methylsulfonyl)-N-(2-sulfamoylethyl)acetamide], the IC50 [1] is reported as less than 0.01 µM and the IC50 [2] is reported as less than 0.01 µM.
In the case of `COCCS(=O)(=O)C(C(=O)NCCS(N)(=O)=O)c1nc2ccc(-c3ccnc(OC)c3)cc2s1` (stereo not drawn) [Example B148, 2-((2-methoxyethyl)sul-fonyl)-2-(6-(2-methoxy-4-pyridinyl)-1,3-benzothiazol-2-yl)-N-(2-sulfamoylethyl)acetamide], the IC50 [1] is reported as less than 0.01 µM and the IC50 [2] is reported as 0.013 µM.
For `COc1nccc(-c2ccc3nc(C(C(=O)NCCS(N)(=O)=O)S(C)(=O)=O)sc3c2)c1F` (stereo not drawn) [Example B149, 2-(6-(3-fluoro-2-methoxy-4-pyridinyl)-1,3-benzothiazol-2-yl)-2-(methylsulfonyl)-N-(2-sulfamoylethyl)acetamide], the IC50 [1] was less than 0.01 µM and the IC50 [2] was 0.064 µM.
`Cc1nnc(CNC(=O)C(c2nc3cc(F)c(-c4ccccc4)cc3s2)S(=O)(=O)CCC(F)(F)F)o1` (stereo not drawn) [Example B150, 2-(5-Fluoro-6-phenyl-1,3-benzothiazol-2-yl)-N-((5-methyl-1,3,4-oxadiazol-2-yl)methyl)-2-((3,3,3-trifluoropropyl)sulfonyl)a-cetamide] gave an IC50 [1] of less than 0.01 µM and an IC50 [2] of 0.084 µM.
Work on `CCS(=O)(=O)C(C(=O)NCc1nnc(C)o1)c1nc2cc(F)c(-c3ccccc3)cc2s1` (stereo not drawn) [Example B151, 2-(ethylsulfonyl)-2-(5-fluoro-6-phenyl-1,3-benzothiazol-2-yl)-N-((5-methyl-1,3,4-oxadiazol-2-yl)methyl)acetamide] yielded an IC50 [1] of less than 0.01 µM and an IC50 [2] of 0.047 µM.
In the case of `Cc1nnc(CNC(=O)C(c2nc3cc(F)c(-c4ccccc4)cc3s2)S(=O)(=O)CC(C)C)o1` (stereo not drawn) [Example B152, 2-(5-fluoro-6-phenyl-1,3-benzothiazol-2-yl)-2-(isobutylsulfonyl)-N-((5-methyl-1,3,4-oxadiazol-2-yl)methyl)acetamide], the IC50 [1] is reported as less than 0.01 µM and the IC50 [2] is reported as 0.039 µM.
Work on `Cc1nnc(CNC(=O)C(c2nc3cc(F)c(-c4ccccc4)cc3s2)S(=O)(=O)Cc2ccccc2)o1` (stereo not drawn) [Example B153, 2-(benzylsulfonyl)-2-(5-fluoro-6-phenyl-1,3-benzothiazol-2-yl)-N-((5-methyl-1,3,4-oxadiazol-2-yl)methyl)acetamide] yielded an IC50 [1] of less than 0.01 µM and an IC50 [2] of 0.039 µM.
In the case of `Cc1nnc(CNC(=O)C(c2nc3cc(F)c(-c4ccccc4)cc3s2)S(C)(=O)=O)o1` (stereo not drawn) [Example B154, 2-(5-fluoro-6-phenyl-1,3-benzothiazol-2-yl)-N-[(5-methyl-1,3,4-oxadiazol-2-yl)methyl]-2-(methylsulfonyl)acetamide], the IC50 [1] is reported as less than 0.01 µM and the IC50 [2] is reported as 0.011 µM.
For `COCCS(=O)(=O)C(C(=O)NCc1nnc(C)o1)c1nc2cc(F)c(-c3ccccc3)cc2s1` (stereo not drawn) [Example B155, 2-(5-fluoro-6-phenyl-1,3-benzothiazol-2-yl)-2-[(2-methoxyethyl)sulfonyl]-N-[(5-methyl-1,3,4-oxadiazol-2-yl)methyl]acetamide], the IC50 [1] was less than 0.01 µM and the IC50 [2] was less than 0.01 µM.
Work on `CC(C)(C)OC(=O)c1ccc(-c2ccc3nc(C(C(=O)NCCS(N)(=O)=O)S(C)(=O)=O)sc3c2)cc1` (stereo not drawn) [Example B156, tert-butyl 4-(2-(1-(methylsulfonyl)-2-oxo-2-(2-sulfamoylethylamino)eth-yl)benzo[d]thiazol-6-yl)benzoate] yielded an IC50 [1] of less than 0.01 µM and an IC50 [2] of less than 0.01 µM.
`NS(=O)(=O)CCNC(=O)C(c1nc2ccc(-c3ccc(C(=O)N4CCOCC4)cc3)cc2s1)S(=O)(=O)CCN1CCOCC1` (stereo not drawn) [Example B157, 2-{6-[4-(4-Morpholinylcarbonyl)phenyl]-1,3-benzothiazol-2-yl}-2-{[2-(4-morpholinyl)ethyl]sulfonyl}-N-(2-sulfamoylethyl)acetamide] gave an IC50 [1, 3] of less than 0.01 µM and an IC50 [2, 4] of 0.147 µM.
Work on `NS(=O)(=O)CCNC(=O)C(c1nc2ccc(-c3ccc(C(=O)N4CCOCC4)cc3)cc2s1)S(=O)(=O)CCNC(=O)OCc1ccccc1` (stereo not drawn) [Example B158, benzyl (2-((1-(6-(4-(4-morpholinylcarbonyl)phen-yl)-1,3-benzothiazol-2-yl)-2-oxo-2-((2-sulfamoyl-ethyl)amino)ethyl)sul-fonyl)ethyl)carbamate] yielded an IC50 [1] of less than 0.01 µM and an IC50 [2] of 0.031 µM.
`NCCS(=O)(=O)C(C(=O)NCCS(N)(=O)=O)c1nc2ccc(-c3ccc(C(=O)N4CCOCC4)cc3)cc2s1` (stereo not drawn) [Example B159] showed an IC50 [1] of less than 0.01 µM and an IC50 [2] of 0.022 µM.
Molecule `NS(=O)(=O)CCNC(=O)C(c1nc2cc(F)c(-c3ccccc3)cc2s1)S(=O)(=O)CCN1CCOCC1` (stereo not drawn) [Example B160, 2-(5-fluoro-6-phenyl-1,3-benzothiazol-2-yl)-2-((2-(4-morpholinyl)ethyl)sul-fonyl)-N-(2-sulfamoylethyl)acetamide] has an IC50 [1] of less than 0.01 µM and an IC50 [2] of 0.02 µM.
Molecule `NCCS(=O)(=O)C(C(=O)NCCS(N)(=O)=O)c1nc2ccc(-c3ccccc3)cc2s1` (stereo not drawn) [Example B161, 2-((2-aminoethyl)sulfonyl)-2-(6-phenyl-1,3-benzothiazol-2-yl)-N-(2-sulfamoylethyl)acetamide] has an IC50 [1] of less than 0.01 µM and an IC50 [2] of 0.022 µM.
With `COCCn1cc(-c2ccc3nc(C(C(=O)NCCS(N)(=O)=O)S(C)(=O)=O)sc3c2)cn1` (stereo not drawn) [Example B162, 2-(6-(1-(2-Methoxyethyl)-1H-pyrazol-4-yl)-1,3-benzothiazol-2-yl)-2-(methylsulfonyl)-N-(2-sulfamoylethyl)acetamide] the IC50 [1, 3] was less than 0.01 µM and the IC50 [2, 4] was 0.995 µM.
Molecule `COCCn1cc(-c2ccc3nc(C(C(=O)NCCS(N)(=O)=O)S(=O)(=O)Cc4ccc(F)cc4)sc3c2)cn1` (stereo not drawn) [Example B163, 2-((4-fluorobenzyl)sul-fonyl)-2-(6-(1-(2-methoxyethyl)-1H-pyrazol-4-yl)-1,3-benzothiazol-2-yl)-N-(2-sulfamoylethyl)a-cetamide] has an IC50 [1] of 0.028 µM and an IC50 [2] of 2.55 µM.
`COCCn1cc(-c2ccc3nc(C(C(=O)NCCS(N)(=O)=O)S(=O)(=O)CC4CC4)sc3c2)cn1` (stereo not drawn) [Example B165, 2-((cyclopropylmethyl)sul-fonyl)-2-(6-(1-(2-methoxyethyl)-1H-pyrazol-4-yl)-1,3-benzothiazol-2-yl)-N-(2-sulfamoylethyl)a-cetamide] gave an IC50 [1] of 0.037 µM and an IC50 [2] of 0.317 µM.
For `CS(=O)(=O)C(C(=O)NCCS(N)(=O)=O)c1nc2ccc(-c3ccc(C(=O)N4CC(F)(F)C4)cc3)cc2s1` (stereo not drawn) [Example B166, 2-(6-(4-(3,3-Difluoroazetidine-1-carbonyl)phenyl)benzo[d]thiazol-2-yl)-2-(methylsulfonyl)-N-(2-sulfamoylethyl)acetamide], the IC50 [1, 3] was less than 0.01 µM and the IC50 [2, 4] was 0.013 µM.
`COCCS(=O)(=O)C(C(=O)NCCS(N)(=O)=O)c1nc2ccc(-c3ccc(C(=O)N4CC(F)(F)C4)cc3)cc2s1` (stereo not drawn) [Example B167, 2-(6-(4-((3,3-difluoro-1-azetidinyl)carbonyl)phen-yl)-1,3-benzothiazol-2-yl)-2-((2-methoxyethyl)sul-fonyl)-N-(2-sulfamoylethyl)acetamide] gave an IC50 [1] of less than 0.01 µM and an IC50 [2] of 0.079 µM.
Work on `COCCS(=O)(=O)C(C(=O)NCCS(N)(=O)=O)c1nc2ccc(-c3ccc(C(=O)N4CCC(F)(F)C4)cc3)cc2s1` (stereo not drawn) [Example B168, 2-(6-(4-((3,3-difluoro-1-pyrrolidinyl)carbonyl)phen-yl)-1,3-benzothiazol-2-yl)-2-((2-methoxyethyl)sul-fonyl)-N-(2-sulfamoyl-ethyl)acetamide] yielded an IC50 [1] of less than 0.01 µM and an IC50 [2] of 0.06 µM.
With `CS(=O)(=O)C(C(=O)NCCS(N)(=O)=O)c1nc2ccc(-c3ccc(C(=O)N4CCC(F)(F)C4)cc3)cc2s1` (stereo not drawn) [Example B169, 2-(6-(4-((3,3-difluoro-1-pyrrolidinyl)carbonyl)phen-yl)-1,3-benzothiazol-2-yl)-2-(methylsulfonyl)-N-(2-sulfamoylethyl)a-cetamide] the IC50 [1] was less than 0.01 µM and the IC50 [2] was 0.091 µM.
`NS(=O)(=O)CCNC(=O)C(c1nc2ccc(-c3ccc(C(=O)N4CCC(F)(F)C4)cc3)cc2s1)S(=O)(=O)CCC(F)(F)F` (stereo not drawn) [Example B170, 2-(6-(4-((3,3-difluoro-1-pyrrolidinyl)carbonyl)phen-yl)-1,3-benzothiazol-2-yl)-N-(2-sulfamoylethyl)-2-((3,3,3-trifluoropropyl)sul-fonyl)acetamide] was tested, and the IC50 [1] was less than 0.01 µM and the IC50 [2] was 0.032 µM.
`CS(=O)(=O)C(C(=O)NCCS(N)(=O)=O)c1nc2ccc(-c3ccc(C(=O)N4CCC(F)(F)CC4)cc3)cc2s1` (stereo not drawn) [Example B171, 2-(6-(4-((4,4-difluoro-1-piperidinyl)carbonyl)phen-yl)-1,3-benzothiazol-2-yl)-2-(methylsulfonyl)-N-(2-sulfamoylethyl)a-cetamide] gave an IC50 [1] of less than 0.01 µM and an IC50 [2] of 0.019 µM.
`COCCN(C)C(=O)c1ccc(-c2ccc3nc(C(C(=O)NCCS(N)(=O)=O)S(C)(=O)=O)sc3c2)cc1` (stereo not drawn) [Example B172, N-(2-Methoxyethyl)-N-methyl-4-(2-(1-(methylsulfonyl)-2-oxo-2-((2-sulfamoylethyl)amino)ethyl)-1,3-benzothiazol-6-yl)benzamide] showed an IC50 [1, 3] of less than 0.01 µM and an IC50 [2, 4] of 0.077 µM.
`CS(=O)(=O)C(C(=O)NCCS(N)(=O)=O)c1nc2ccc(-c3ccc(C(=O)O)cc3)cc2s1` (stereo not drawn) [Example B173, 4-(2-(1-(Methylsulfonyl)-2-oxo-2-(2-sulfamoylethylamino)ethyl)benzo[d]thiazol-6-yl)benzoic acid] was tested, and the IC50 [1, 3] was less than 0.01 µM and the IC50 [2, 4] was 0.274 µM.
With `CC1(O)CN(C(=O)c2ccc(-c3ccc4nc(C(C(=O)NCCS(N)(=O)=O)S(C)(=O)=O)sc4c3)cc2)C1` (stereo not drawn) [Example B174, 2-(6-(4-(3-Hydroxy-3-methylazetidine-1-carbonyl)phenyl)benzo[d]thiazol-2-yl)-2-(methylsulfonyl)-N-(2-sulfamoylethyl)acetamide] the IC50 [1, 3] was less than 0.01 µM and the IC50 [2, 4] was 0.402 µM.

— US8987314B2, “Amide, urea or sulfone amide linked benzothiazole inhibitors of endothelial lipase” (Bristol-Myers Squibb Company, priority 2012, dated 2015)
